Experimental data as given in patent publication US11744901B2, “Phage conjugates and uses thereof” (CONSIGLIO NAZIONALE DELLE RICERCHE, priority 2017, dated 2023).

Columns and labels:
[1] = human immunotherapy, repeated KRN7000 administration; cited from earlier work
splenocytes = settings: stated as known, cited from earlier work
iNKT cells = settings: animal model; prevents release of cytokines after recall stimulations (Sullivan and Kronenberg 2005); cited from earlier work
B16 melanoma cells = test: Therapeutic vaccination against B16 tumour cells; type: in vivo; settings: B16 melanoma subcutaneous in C57BL/6 mice, intratumoural treatment when tumours palpable; FIG. 4
Protocol: C57BL/6 mice (n=5/group) were inoculated with 2.5×10^5 B16 melanoma cells kindly provided by Dr. Dellabona (Istituto scientifico San Raffaele, Milan, Sartorius R et al., 2011) subcutaneously in the left side. When the tumours became palpable, the mice were vaccinated with PBS, 2.5 micrograms aGalCer, 50 micrograms of fdWT bacteriophages or 50 micrograms of fdWT/aGalCer in a total volume of 80 microliters. Tumour growth was assessed three times a week using a caliber and reported as tumour volume (in mm^3) according to the formula (d^2×D)/2, where d and D are the minor diameter and the major one, respectively. The mice were sacrificed when the size of the tumour had exceeded 1,500 mm^3, in compliance with the established guidelines. Survival was recorded as the percentage of surviving animals.

SMILES | tolerability in patients [1] | levels of T-cell receptor (TCR) on iNKTs (splenocytes; administered intravenously to mice) | ability of splenocytes to proliferate and produce cytokines after in vitro restimulation with aGalCer (splenocytes; mice injected with soluble aGalCer, compared to naive splenocytes) | anergy of iNKT cells (iNKT cells) | clinical response in patients [1] | tumour growth (B16 melanoma cells)
CCCCCCCCCCCCCCCCCCCCCCCCCC(=O)N[C@@H](CO[C@H]1OC(CO)[C@H](O)C(O)C1O)[C@H](O)[C@H](O)CCCCCCCCCCCCCC (stereo partly drawn) [aGalCer, alpha-Galactosylceramide] | well tolerated | – | – | – | – | –
CCCCCCCCCCCCCCCCCCCCCCCCCC(=O)N[C@@H](CO[C@H]1O[C@H](CO)[C@H](O)[C@H](O)[C@H]1O)[C@H](O)[C@H](O)CCCCCCCCCCCCCC [aGalCer, alpha-Galactosylceramide] | – | decrease | lose rapidly their ability to proliferate and produce cytokines | induces long term cell anergy of iNKT cells | weak clinical response | not able to protect animals from tumour growth
